Tested on: Human immunodeficiency virus
Experiment: Resistance of constructed mutant 48V/90M virus was calculated as (IC90 for a mutant virus / IC90 of wt HXB2 virus)
Assay type: functional
Conditions: not given

First: O=C(Nc1ncc[nH]1)c1cccc(CN2C(=O)N(Cc3cccc(C(=O)Nc4ncc[nH]4)c3)[C@H](Cc3ccccc3)[C@H](O)[C@@H](O)[C@H]2Cc2ccccc2)c1
Second: O=C(Nc1nc2ccccc2[nH]1)c1cccc(CN2C(=O)N(CC3CC3)[C@H](Cc3ccccc3)[C@H](O)[C@@H](O)[C@H]2Cc2ccccc2)c1
The Resistance of the first is lower: 0.1 for the first, 1.9 for the second.

Going from `O=C1N(Cc2ccc(CO)cc2)[C@H](Cc2ccccc2)[C@H](O)[C@@H](O)[C@@H](Cc2ccccc2)N1Cc1ccc(CO)cc1` [DMP-323] to `O=C(Nc1nccs1)c1cccc(CN2C(=O)N(CC3CC3)[C@H](Cc3ccccc3)[C@H](O)[C@@H](O)[C@H]2Cc2ccccc2)c1`, the Resistance rises from 0.3 to 0.9.

Tested on: Human immunodeficiency virus
Experiment: Resistance of constructed mutant ABT538 virus was calculated as (IC90 for a mutant virus / IC90 of wt HXB2 virus)
Assay type: functional
Conditions: not given

Compared with `O=C(Nc1ncc[nH]1)c1cccc(CN2C(=O)N(Cc3cccc(C(=O)Nc4ncc[nH]4)c3)[C@H](Cc3ccccc3)[C@H](O)[C@@H](O)[C@H]2Cc2ccccc2)c1`, `O=C(Nc1nc2ccccc2[nH]1)c1cccc(CN2C(=O)N(CC3CC3)[C@H](Cc3ccccc3)[C@H](O)[C@@H](O)[C@H]2Cc2ccccc2)c1` is higher in Resistance: 0.2 for the first, 86 for the second.

Going from `O=C1N(Cc2ccc(CO)cc2)[C@H](Cc2ccccc2)[C@H](O)[C@@H](O)[C@@H](Cc2ccccc2)N1Cc1ccc(CO)cc1` [DMP-323] to `O=C(Nc1nccs1)c1cccc(CN2C(=O)N(CC3CC3)[C@H](Cc3ccccc3)[C@H](O)[C@@H](O)[C@H]2Cc2ccccc2)c1`, the Resistance falls from 93 to 41.

Target: Human immunodeficiency virus type 1 protease (Human immunodeficiency virus 1, UniProt Q72874)
Experiment: Binding affinity to inhibit the purified wild-type HIV-1 Protease
Conditions: not given

With `O=C(Nc1nc2ccccc2[nH]1)c1cccc(CN2C(=O)N(CC3CC3)[C@H](Cc3ccccc3)[C@H](O)[C@@H](O)[C@H]2Cc2ccccc2)c1` the Ki was 0.037 nM.

Tested on: not listed separately
Experiment: Resistance of constructed mutant 82F virus was calculated as (IC90 for a mutant virus / IC90 of wt HXB2 virus).
Assay type: functional
Conditions: not given

Compared with `O=C(Nc1ncc[nH]1)c1cccc(CN2C(=O)N(Cc3cccc(C(=O)Nc4ncc[nH]4)c3)[C@H](Cc3ccccc3)[C@H](O)[C@@H](O)[C@H]2Cc2ccccc2)c1`, `O=C(Nc1nc2ccccc2[nH]1)c1cccc(CN2C(=O)N(CC3CC3)[C@H](Cc3ccccc3)[C@H](O)[C@@H](O)[C@H]2Cc2ccccc2)c1` is higher in Resistance: 1.6 for the first, 2.1 for the second.

Going from `O=C1N(Cc2ccc(CO)cc2)[C@H](Cc2ccccc2)[C@H](O)[C@@H](O)[C@@H](Cc2ccccc2)N1Cc1ccc(CO)cc1` [DMP-323] to `O=C(Nc1nccs1)c1cccc(CN2C(=O)N(CC3CC3)[C@H](Cc3ccccc3)[C@H](O)[C@@H](O)[C@H]2Cc2ccccc2)c1`, the Resistance falls from 7.1 to 4.1.

Tested on: Human immunodeficiency virus
Experiment: Resistance of constructed mutant […]/47V/50V virus was calculated as (IC90 for a mutant virus / IC90 of wt HXB2 virus).
Assay type: functional
Conditions: not given

First: O=C(Nc1ncc[nH]1)c1cccc(CN2C(=O)N(Cc3cccc(C(=O)Nc4ncc[nH]4)c3)[C@H](Cc3ccccc3)[C@H](O)[C@@H](O)[C@H]2Cc2ccccc2)c1
Second: O=C(Nc1nc2ccccc2[nH]1)c1cccc(CN2C(=O)N(CC3CC3)[C@H](Cc3ccccc3)[C@H](O)[C@@H](O)[C@H]2Cc2ccccc2)c1
The Resistance of the first is lower: 0.4 for the first, 2.1 for the second.

`O=C1N(Cc2ccc(CO)cc2)[C@H](Cc2ccccc2)[C@H](O)[C@@H](O)[C@@H](Cc2ccccc2)N1Cc1ccc(CO)cc1` [DMP-323] and `O=C(Nc1nccs1)c1cccc(CN2C(=O)N(CC3CC3)[C@H](Cc3ccccc3)[C@H](O)[C@@H](O)[C@H]2Cc2ccccc2)c1` are the same in Resistance: 11 for the first, 11 for the second.

Tested on: Human immunodeficiency virus
Experiment: Resistance of constructed mutant 84V virus was calculated as (IC90 for a mutant virus / IC90 of wt HXB2 virus).
Assay type: functional
Conditions: not given

Compared with `O=C(Nc1ncc[nH]1)c1cccc(CN2C(=O)N(Cc3cccc(C(=O)Nc4ncc[nH]4)c3)[C@H](Cc3ccccc3)[C@H](O)[C@@H](O)[C@H]2Cc2ccccc2)c1`, `O=C(Nc1nc2ccccc2[nH]1)c1cccc(CN2C(=O)N(CC3CC3)[C@H](Cc3ccccc3)[C@H](O)[C@@H](O)[C@H]2Cc2ccccc2)c1` is higher in Resistance: 0.7 for the first, 8.4 for the second.

Going from `O=C1N(Cc2ccc(CO)cc2)[C@H](Cc2ccccc2)[C@H](O)[C@@H](O)[C@@H](Cc2ccccc2)N1Cc1ccc(CO)cc1` [DMP-323] to `O=C(Nc1nccs1)c1cccc(CN2C(=O)N(CC3CC3)[C@H](Cc3ccccc3)[C@H](O)[C@@H](O)[C@H]2Cc2ccccc2)c1`, the Resistance falls from 22 to 6.1.

Target: Human immunodeficiency virus type 1 protease (Human immunodeficiency virus 1) (UniProt Q72874)
Experiment: Inhibitory concentration against accumulation of viral p24 antigen following infection of MT-4 cells
Assay type: functional, cell-based
Conditions: MT4

`O=C(Nc1ncc[nH]1)c1cccc(CN2C(=O)N(Cc3cccc(C(=O)Nc4ncc[nH]4)c3)[C@H](Cc3ccccc3)[C@H](O)[C@@H](O)[C@H]2Cc2ccccc2)c1` and `O=C(Nc1nc2ccccc2[nH]1)c1cccc(CN2C(=O)N(CC3CC3)[C@H](Cc3ccccc3)[C@H](O)[C@@H](O)[C@H]2Cc2ccccc2)c1` are within 1.5-fold of each other in IC90: 19 nM for the first, 17 nM for the second.

Compared with `O=C1N(Cc2ccc(CO)cc2)[C@H](Cc2ccccc2)[C@H](O)[C@@H](O)[C@@H](Cc2ccccc2)N1Cc1ccc(CO)cc1` [DMP-323], `O=C(Nc1nccs1)c1cccc(CN2C(=O)N(CC3CC3)[C@H](Cc3ccccc3)[C@H](O)[C@@H](O)[C@H]2Cc2ccccc2)c1` is 2.4-fold lower in IC90: 95 nM for the first, 40 nM for the second.

Tested on: Human immunodeficiency virus
Experiment: Resistance of constructed mutant 82A virus was calculated as (IC90 for a mutant virus / IC90 of wt HXB2 virus).
Assay type: functional
Conditions: not given

First: O=C(Nc1ncc[nH]1)c1cccc(CN2C(=O)N(Cc3cccc(C(=O)Nc4ncc[nH]4)c3)[C@H](Cc3ccccc3)[C@H](O)[C@@H](O)[C@H]2Cc2ccccc2)c1
Second: O=C(Nc1nc2ccccc2[nH]1)c1cccc(CN2C(=O)N(CC3CC3)[C@H](Cc3ccccc3)[C@H](O)[C@@H](O)[C@H]2Cc2ccccc2)c1
The Resistance of the first is higher: 2.7 for the first, 1.9 for the second.

Compared with `O=C1N(Cc2ccc(CO)cc2)[C@H](Cc2ccccc2)[C@H](O)[C@@H](O)[C@@H](Cc2ccccc2)N1Cc1ccc(CO)cc1` [DMP-323], `O=C(Nc1nccs1)c1cccc(CN2C(=O)N(CC3CC3)[C@H](Cc3ccccc3)[C@H](O)[C@@H](O)[C@H]2Cc2ccccc2)c1` is lower in Resistance: 2.8 for the first, 1.8 for the second.

Tested on: Human immunodeficiency virus
Experiment: Resistance of constructed mutant MK639 virus was calculated as (IC90 for a mutant virus / IC90 of wt HXB2 virus).
Assay type: functional
Conditions: not given

Compared with `O=C(Nc1ncc[nH]1)c1cccc(CN2C(=O)N(Cc3cccc(C(=O)Nc4ncc[nH]4)c3)[C@H](Cc3ccccc3)[C@H](O)[C@@H](O)[C@H]2Cc2ccccc2)c1`, `O=C(Nc1nc2ccccc2[nH]1)c1cccc(CN2C(=O)N(CC3CC3)[C@H](Cc3ccccc3)[C@H](O)[C@@H](O)[C@H]2Cc2ccccc2)c1` is higher in Resistance: 0.4 for the first, 26 for the second.

Going from `O=C1N(Cc2ccc(CO)cc2)[C@H](Cc2ccccc2)[C@H](O)[C@@H](O)[C@@H](Cc2ccccc2)N1Cc1ccc(CO)cc1` [DMP-323] to `O=C(Nc1nccs1)c1cccc(CN2C(=O)N(CC3CC3)[C@H](Cc3ccccc3)[C@H](O)[C@@H](O)[C@H]2Cc2ccccc2)c1`, the Resistance rises from 18 to 18.5.
